Test results published in article PMC9268243, “Metabolic Behaviors of Aconitum Alkaloids in Different Concentrations of Aconiti Lateralis Radix Praeparata and Effects of Aconitine in Healthy Human and Long QT Syndrome Cardiomyocytes” (Molecules, 2022).
Read-outs that look alike come from different tables or passages of the source.

Experiments:
[1] = Pharmacokinetic study of six aconitum alkaloids in rat plasma after oral Fu Zi extracts (UPLC-MS/MS); type: in vivo, Sprague Dawley rats; details: SD rat plasma, mean ± SD, n = 8; for Cmax / Tmax / AUC(0-t) / CL/F / Vd/F / half-life: both sexes, Sprague Dawley, in vivo; for AUC(0-t): read-out: AUC(0–48h); for CL/F: read-out: CLz/F (converted); for Vd/F: read-out: Vz/F; for half-life: read-out: t1/2z (converted)
Method: Fu Zi (200 g) was taken and broken by a pulverizer to the size of 0.5–1.0 cm. The broken Fu Zi was soaked in 1.6 L distilled water and boiled for 0.5 h. The filtrate was collected and the previous step was repeated for the filtered residue. The mixed filtrates were precipitated with 60% ethanol, and then centrifuged (2000× g, 10 min). The supernatant was decompressed and concentrated to a final density of 2.0 g/mL by the amount of the crude drugs. The final concentration of ethanol in Fu Zi extracts before administration was below 0.5%. The extract was subsequently kept at −20 °C for oral administration to rats.
All samples were analyzed on UPLC® I-Class and Xevo® TQS mass spectrometry combined system. Separations by a Waters ACQUITY UPLC® HSS T3(2.1 mm × 100 mm, 1.8 μm) column were conducted with a mobile phase of water (A) and acetonitrile (B), both containing 0.1% formic acid, at the flow rate of 0.3 mL·min^−1.The run time was 5.0 min and the gradient elution program was adopted as follows: 0–0.3 min, 10% B; 0.3–1 min, 10–50% B; 1–2.5 min, 50–90% B; 2.5–3 min, 90% B; 3–5 min, 10% B. The temperature of the column and samples were set at 45 °C and 10 °C, respectively. The volume of injection was 2 μL.
The detection was quantified by a triple quadrupole mass spectrometer that was set as multiple reactive monitoring (MRM) in the electrospray positive ionization mode (ESI+). The correlative parameters were as follows: capillary voltage: 3 kV; desolvation gas flow: 800 L·h^−1; cone gas flow: 150 L·h^−1; source temperature: 150 °C; desolvation temperature: 500 °C.
The method of […] was utilized. An amount of 100 μL of plasma samples from rats after oral administration of Fu Zi extracts was precipitated with 300 μL of 50% acetonitrile plus 50% methanol, vortexed for 1.0 min and centrifuged at a speed of 12,000× g at 4 °C for 10 min. The supernatant was transferred to another 1.5 mL centrifuge tube, dried with a stream of nitrogen at 40 °C, redissolved in 50 μL methanol and centrifuged at 12,000× g for 10 min. Then, the supernatant was pipetted out into the autosampler vials and analyzed by UPLC-MS/MS system.
24 Sprague Dawley rats (half male and female, weight 180–220 g) were purchased from Beijing Weitong Lihua Biotechnology Co.Ltd. (Beijing, China). The license number of experimental animal production was SCXK (Jing) 2016–0006. The animals were maintained under a standard laboratory condition (humidity: 40–70%, room temperature: 20–26 °C, […], 12 h dark-light cycle) and fed separately. All animal experiments were conducted according to the Guide for the Care and Use of Laboratory Animals (National Research Council of the USA, 1996) and approved by the Institutional Animal Care and Use Committee (IACUC-DWZX-2020-776). After 5 days of acclimation, the rats were fasted for 12 h but provided with water freely before the experiments. The rats were randomly divided into 3 groups: high (2.0 g/kg), middle (1.0 g/kg), and low (0.5 g/kg) dose groups. The Fu Zi extracts was administered to each rat intragastrically. An equivalent of 0.20 mL blood samples were collected from the fossa orbitalis vein into 1.5 mL heparinized centrifuge tubes at the designated time points after dosing: 0.08, 0.25, 0.5, 1, 2, 4, 8, 12, 24, and 48 h. The plasma samples were pipetted out into another 1.5 mL centrifuge tubes after being centrifuged at 5000× g for 10 min and then stored at −20 °C until further analysis.
The data were acquired by […] from Waters (UNIFI). Microsoft Office Excel and the SPSS software (Version 13.0) was used for data analysis. The data below the LLOQ were regarded as zero in summary statistics. The pharmacokinetic parameters were calculated by DAS pharmacokinetic program (Version 2.0) and all analyzed by non-compartmental method. […] All data were presented as mean ± SD. […]

CYP3A4 = details: in vivo; cited from earlier work

Structure (SMILES)	Cmax ([1]; oral Fu Zi extracts 0.5 g/kg) [ng/mL]	Tmax ([1]; oral Fu Zi extracts 0.5 g/kg) [h]	AUC(0-t) ([1]; oral Fu Zi extracts 0.5 g/kg) [ng·h/mL]	CL/F ([1]; oral Fu Zi extracts 0.5 g/kg) [mL/min/kg]	Vd/F ([1]; oral Fu Zi extracts 0.5 g/kg) [L/kg]	half-life ([1]; oral Fu Zi extracts 0.5 g/kg) [h]	Cmax ([1]; oral Fu Zi extracts 1.0 g/kg) [ng/mL]	Tmax ([1]; oral Fu Zi extracts 1.0 g/kg) [h]	AUC(0-t) ([1]; oral Fu Zi extracts 1.0 g/kg) [ng·h/mL]	CL/F ([1]; oral Fu Zi extracts 1.0 g/kg) [mL/min/kg]	Vd/F ([1]; oral Fu Zi extracts 1.0 g/kg) [L/kg]	half-life ([1]; oral Fu Zi extracts 1.0 g/kg) [h]	Cmax ([1]; oral Fu Zi extracts 2.0 g/kg) [ng/mL]	Tmax ([1]; oral Fu Zi extracts 2.0 g/kg) [h]	AUC(0-t) ([1]; oral Fu Zi extracts 2.0 g/kg) [ng·h/mL]	CL/F ([1]; oral Fu Zi extracts 2.0 g/kg) [mL/min/kg]	Vd/F ([1]; oral Fu Zi extracts 2.0 g/kg) [L/kg]	half-life ([1]; oral Fu Zi extracts 2.0 g/kg) [h]	t1/2z ([1]; oral Fu Zi extracts 1.0 g/kg) [h]	main CYP 450 subtype for alkaloid metabolism (CYP3A4)
CCN1CC2(COC)C(O)CC(OC)C34C5CC6(O)C(OC)C(O)C(O)(C5C6OC(=O)c5ccccc5)C(C(OC)C23)C14 (stereo not shown) [BAC, benzoylaconine]	1.52 ± 0.71	3.72 ± 3.6	16.2 ± 5.43	460	194 ± 117	4.48 ± 0.64	3.24 ± 2.01	5.71 ± 5.07	38.5 ± 15.4	271	152 ± 97.1	5.91 ± 3.79	5.91 ± 2.25	0.34 ± 0.2	50.5 ± 19.4	583	801 ± 396	13.7 ± 4.26		
COC[C@@]12CC[C@H](OC)[C@]34C(C([C@H](OC)[C@H]13)[C@]1(OC(C)=O)[C@H]3[C@@H](OC(=O)c5ccccc5)[C@](O)(C[C@H]34)[C@@H](OC)[C@@H]1O)N(C)C2 [HA, hypaconitine]	6.37 ± 1.96	2.14 ± 0.9	62.9 ± 26.9	67	12.8 ± 6.88	1.83 ± 0.64	9.22 ± 1.78	3.88 ± 2.03	115 ± 25	59.5	45.3 ± 26.3		12.5 ± 4.42	1.6 ± 1.47	186 ± 64.7	79.7	80.4 ± 35.5	11.9 ± 4.59	8.72 ± 3.40	CYP3A4
